Here are results for 16 compounds from a melting point compilation (Tetko et al.; mined from patent text by program, amines drawn as free bases though some values may be those of a salt).

One may read the melting point as the temperature of the solid-liquid transition. The compound `COc1ccc(C(=O)c2ccccc2)c([N+](=O)[O-])c1O` gave a melting point of 137 to 139 °C.

As for `O=C1NCC(c2ccsc2)SCC1N1C(=O)c2ccccc2C1=O` (stereo unspecified), the melting point lay in the range of 243 to 245 °C.

`O=C1CCC(c2c[nH]c3cc(F)ccc23)CC1`: the melting point was in the range of 102 to 105 °C.

For `CCCCc1nc2c(N)nc3ccc(OCc4ccccc4)cc3c2n1CCCCNS(=O)(=O)c1ccccc1`, the melting point lay in the range of 204 to 205 °C.

As for `Cc1ccc(C)c(C2C(=O)CC(C)(C)CC2=O)c1`, the melting point is 168 to 170 °C.

The compound `O=C1c2cc(C(F)(F)F)c(C(F)(F)F)cc2C(=O)c2cc3ccccc3cc21` registered a melting point above 280 °C.

The compound `NCC#Cc1cnc2c(c1)N(Cc1cc(Cl)ccc1Cl)CCN2` gave a melting point of 183 °C.

Compound `Cc1cccc2sc(-c3ccccn3)nc(=O)c12` showed a melting point of 151 °C.

`CCOC(=O)c1ccc(OCC)c(-c2ncc(C(=O)OCC)c(=O)[nH]2)c1` came in with a melting point of 180 to 182 °C.

In turn, `CCCCCCCCCCCCS(=O)(=O)N1CCCSC1=C[N+](=O)[O-]` gave a melting point of 116 to 117 °C.

`O=c1c2ccccc2sc2c(OCc3ccccc3)ccc(Cl)c12` displayed a melting point of 139 to 140 °C.

In turn, `Cc1sc(-c2ccccc2)nc1CCOc1ccc(C[C@@H](C(=O)O)n2cccc2)cc1` returned a melting point of 157 to 158 °C.

As for `CCCCN(C)CCOc1ccc(Cn2c(-c3ccc(O)cc3)c(C)c3cc(O)ccc32)cc1`, the melting point lay within 102 to 107 °C.

On to `Cc1cc(Cl)cc(C(=O)c2[nH]c(=O)[nH]c(=O)c2C(C)C)c1`, for which the melting point was 254 to 255 °C.

Take `COC(=O)C1Cc2c([nH]c3ccccc23)C(c2cccc(Cl)c2)N1` (stereo unspecified): the melting point was in the range of 150 to 160 °C.

In turn, `COc1ccc(Cn2c(N)c(NC(=O)C(C)C)c(=O)[nH]c2=O)cc1OC` gave a melting point of 207 to 210 °C.
